Assay results published in article PMC6193035, “Novel small molecules affecting cell membrane as potential therapeutics for avian pathogenic Escherichia coli” (Scientific Reports, 2018).
Converted amounts (≈) assume the structure as drawn. Marks after values point to notes of the source that are not given here.

Tests used:
APEC O115 = assay: MIC and MBC determination in M63 media; format: cell-based; conditions: Escherichia coli
APEC O78 [1] = assay: Loss of 260/280 nm absorbing materials assay; format: cell-based, Escherichia coli; conditions: 2X MBC, 1 h; for Absorbance 280 nm of treated supernatant: DMSO 2.58; for Absorbance 280 nm of treated supernatant / Absorbance 260 nm of treated supernatant: superscript a P < 0.05 vs DMSO; for Absorbance 260 nm of treated supernatant: DMSO 3.77
Method: (§1) Membrane permeability assays (crystal violet (CV) uptake and loss of 260/280 nm absorbing materials) were conducted as described previously. […] CV uptake was measured using the formula: (OD DMSO − OD SM/OD DMSO × 100). Two independent experiments in duplicates were conducted.

APEC O2-211 = assay: MIC and MBC determination in M63 media; format: cell-based; conditions: Escherichia coli; APEC O2-211, M63 media
[2] = test system: intracellular APEC O2 in Caco-2 cells; assay: Intracellular survival assay; format: cell-based, Escherichia coli; conditions: for minimal effective concentration: Escherichia coli, O2, Caco-2, 6 h treatment, read-out: SMs intracellular APEC clearance concentration; for intracellular APEC clearance concentration as multiple of MIC (superscript): O2, Caco-2; for concentration at which the SM significantly (P < 0.01) reduced intracellular APEC (superscript of t-statistic): O2, Caco-2, 6 h
Method: (§2) Intracellular survival assay was conducted as described previously[28],[29] to determine the effect of cidal SMs on APEC survival in phagocytic (HD11, THP-1) and non-phagocytic (Caco-2) cells. Briefly, mid-logarithmic phase grown APEC O78, O1, and O2 were washed and adjusted to 1 × 10^7 CFU/mL in cell culture incomplete media (no FBS and antibiotics). One-hundred microlitres adjusted APEC suspension was added at multiplicity of infection (MOI) 10 to wells of 96-well cell culture plate containing cultured macrophage (HD11, THP-1) and epithelial cells (Caco-2) and incubated for 1 h and 3 h, respectively. […] The cells were then lysed with 100 µL of 0.1% Triton X-100 for 5 mins, serially diluted, and plated on LB agar plate to enumerate viable bacteria. The intracellular bacteria in SMs treated wells were compared with DMSO (1%) treated wells. Two independent experiments in duplicate wells for each concentration of SMs were conducted.

[3] = test system: intracellular APEC O78 in Caco-2 cells; assay: Intracellular survival assay; format: cell-based, Escherichia coli; conditions: for minimal effective concentration: Escherichia coli, O78, Caco-2, 6 h treatment, read-out: SMs intracellular APEC clearance concentration; for intracellular APEC clearance concentration as multiple of MIC (superscript): O78, Caco-2; for concentration at which the SM significantly (P < 0.01) reduced intracellular APEC (superscript of t-statistic): O78, Caco-2, 6 h
Method: as §2

[4] = test system: biofilm embedded APEC O78; assay: MBEC High-throughput (HTP) assay; format: cell-based, Escherichia coli; conditions: for MBEC as multiple of MIC (superscript): 18 h challenge in M63 media; for MBEC as multiple of MIC: tested 0.5X to 8X MIC
Method: The effect of cidal SMs against biofilm embedded APEC was determined using MBEC High-throughput (HTP) assay (Innovotech Inc., AB, Canada)[22]. Briefly, 150 μL of 0.05 OD600 adjusted APEC O78 culture was aliquoted into each well of the MBEC device containing polystyrene pegs and incubated at 37 °C for 36 h in LB media under stationary condition. […] The plate was incubated in the dark for 18 h at 37 °C with rotation at 110 rpm. The DMSO (1%) and […] media were used as positive and negative controls, respectively. Following incubation, MIC of SMs in challenged plate was recorded. The SMs exposed pegs were then transferred to a new 96-well plate containing PBS and sonicated for 30 mins (Aquasonic ultrasonic cleaner, VWR) to disrupt the biofilm. The sonicated suspensions were ten-fold serially diluted and plated on LB agar plate. Biofilm embedded APEC bacteria were enumerated and minimum biofilm eradication concentration (MBEC) of SMs were determined as described previously. Two independent experiments were conducted.

APEC O1-63 = assay: MIC and MBC determination in M63 media; format: cell-based; conditions: Escherichia coli; APEC O1-63, M63 media
APEC O35 = assay: MIC and MBC determination in M63 media; format: cell-based; conditions: Escherichia coli
APEC O15 = assay: MIC and MBC determination in M63 media; format: cell-based; conditions: Escherichia coli
APEC O8 = assay: MIC and MBC determination in M63 media; format: cell-based; conditions: Escherichia coli
[5] = test system: intracellular APEC O78, O2, and O1 in infected Caco-2, HD11, and THP1 cells; assay: Intracellular survival assay, statements over all serotypes and cells; format: cell-based, Escherichia coli; conditions: for minimal effective concentration: Escherichia coli, 6 h, O78, O2 and O1, Caco-2, HD11, THP-1, read-out: concentration clearing intracellular APEC
Method: as §2

APEC O2 = assay: MIC and MBC determination in M63 media; format: cell-based; conditions: Escherichia coli
APEC O1 = assay: MIC and MBC determination in M63 media; format: cell-based; conditions: Escherichia coli
APEC O109 = assay: MIC and MBC determination in M63 media; format: cell-based; conditions: Escherichia coli
APEC O78 [6] = assay: MIC and MBC determination in M63 media; format: cell-based, Escherichia coli; conditions: for MIC / MBC: Escherichia coli; for MBC: subculture on LB agar
Method: (§3) One microlitre SM of each concentration was transferred to each well of a 96-well plate containing 100 µL of the 0.05 OD600 adjusted APEC O78 culture in M63 media. Growth was monitored in Sunrise - Absorbance microplate reader as described above. MIC was indicated by lowest concentration of SM with non-elevated OD600 measurement. MBC was determined by absence of APEC growth on LB agar plate following subculture. […] Two independent experiments were conducted.

APEC O78-53 = assay: MIC and MBC determination in M63 media; format: cell-based; conditions: Escherichia coli; APEC O78-53, M63 media
Method: as §3

APEC O78 [7] = assay: Bacterial cytological profiling by confocal microscopy; format: cell-based, Escherichia coli; conditions: 2X MBC, 2 h
Method: Confocal microscopy was used for bacterial cytological profiling (BCP) to identify the cellular pathways targeted by SMs as described previously. […] After incubation, treated cultures were centrifuged, washed, and resuspended in 100 µL PBS. FM4-64 (#T13320 Molecular Probes/Invitrogen) (1 µg/mL) and SYTO-9 (#S34854 Molecular Probes/Invitrogen) (5 µM) were added to the bacterial cultures and incubated for 45 mins at room temperature with shaking at 150 rpm. Cultures were then centrifuged, washed, and resuspended in PBS to 1/10th volume of the original cultures.

APEC O78 [8] = assay: Crystal violet (CV) uptake assay; format: cell-based, Escherichia coli; conditions: 2X MBC, 30 mins; P < 0.05, Student's t-test
Method: as §1

SMILES	MBC (APEC O115) [µM]	MIC (APEC O115) [µM]	260 nm absorbing materials in supernatant compared with DMSO (APEC O78 [1])	280 nm absorbing materials in supernatant compared with DMSO (APEC O78 [1])	Absorbance 280 nm of treated supernatant (APEC O78 [1])	Absorbance 260 nm of treated supernatant (APEC O78 [1])	MBC (APEC O2-211) [µM]	MIC (APEC O2-211) [µM]	minimal effective concentration [2] [µM]	concentration at which the SM significantly (P < 0.01) reduced intracellular APEC (superscript of t-statistic) [2]	minimal effective concentration [3] [µM]	intracellular APEC clearance concentration as multiple of MIC (superscript) [3]	concentration at which the SM significantly (P < 0.01) reduced intracellular APEC (superscript of t-statistic) [3]	MBEC as multiple of MIC (superscript) [4]	MBC (APEC O1-63) [µM]	MIC (APEC O1-63) [µM]	MBC (APEC O35) [µM]	MIC (APEC O35) [µM]	MBC (APEC O15) [µM]	MIC (APEC O15) [µM]	other results
CC1CCC(C(C)C)C(OC(=O)Cn2c[n+](CC(=O)OC3CC(C)CCC3C(C)C)c3ccccc32)C1 (stereo not drawn) [SM4]	25	25	significantly (P < 0.05, Student’s t-test) increased	significantly (P < 0.05, Student’s t-test) increased	2.69^a	3.91^a	25	25	100	c (2XMIC)	50	b (2X MIC)	a (0.5X MIC)	a (0.5X MIC)	50	25	25	25	25	25	intracellular APEC clearance concentration as multiple of MIC (superscript) [2]: c (4X MIC); MBC (APEC O8): 25 µM; MIC (APEC O8): 25 µM; minimal effective concentration [5]: ≤ 100 µM; ranking in clearing intracellular APEC ([5]; all tested serotypes and cells): most effective SMs in clearing intracellular APEC serotypes in all tested cells; MBC (APEC O2): 50 µM; MIC (APEC O2): 25 µM; MBC (APEC O1): 50 µM; MIC (APEC O1): 25 µM; MBC (APEC O109): 25 µM; MIC (APEC O109): 25 µM; MIC (APEC O78 [6]): 25 µM; MBC (APEC O78 [6]): 50 µM; MBC (APEC O78-53): 50 µM; MIC (APEC O78-53): 25 µM; cytological profile (FM4-64 / SYTO-9 staining) (APEC O78 [7]): absence of FM4-64 stained membrane (membrane disruptors)
CC1CCCN(CCC(=O)c2ccc(Br)cc2)C1 (stereo not drawn) [SM1]	200 (≈ 62 µg/mL)	200 (≈ 62 µg/mL)	significantly (P < 0.05, Student’s t-test) increased	significantly (P < 0.05, Student’s t-test) increased	3.08^a	4.00^a	200 (≈ 62 µg/mL)	200 (≈ 62 µg/mL)	> 400	b (1X MIC)	200	a (1X MIC)	a (0.5X MIC)	d (4X MIC)	250 (≈ 77.6 µg/mL)	200 (≈ 62 µg/mL)	200 (≈ 62 µg/mL)	200 (≈ 62 µg/mL)	250 (≈ 77.6 µg/mL)	200 (≈ 62 µg/mL)	MBEC as multiple of MIC [4]: 4 X MIC; MBC (APEC O8): 200 µM (≈ 62 µg/mL); MIC (APEC O8): 200 µM (≈ 62 µg/mL); minimal effective concentration [5]: ≥ 100 µM; MBC (APEC O2): 200 µM (≈ 62 µg/mL); MIC (APEC O2): 200 µM (≈ 62 µg/mL); MBC (APEC O1): 250 µM (≈ 77.6 µg/mL); MIC (APEC O1): 200 µM (≈ 62 µg/mL); MBC (APEC O109): 200 µM (≈ 62 µg/mL); MIC (APEC O109): 200 µM (≈ 62 µg/mL); MBC relative to MIC (APEC O78 [6]): identical to MIC; MIC (APEC O78 [6]): 200 µM (≈ 62 µg/mL); MBC (APEC O78 [6]): 200 µM (≈ 62 µg/mL); MBC (APEC O78-53): 200 µM (≈ 62 µg/mL); MIC (APEC O78-53): 200 µM (≈ 62 µg/mL); uptake of crystal violet compared with DMSO (APEC O78 [8]): increased the uptake of crystal violet; cytological profile (FM4-64 / SYTO-9 staining) (APEC O78 [7]): filamentous or short rods (spheroplasts) morphology (PG synthesis inhibitors)
COc1ccc(CCN(Cc2cc3c(cc2Cl)OCO3)CC2CCN(C)CC2)cc1 [SM11]	200 (≈ 86.2 µg/mL)	200 (≈ 86.2 µg/mL)	significantly (P < 0.05, Student’s t-test) increased	significantly (P < 0.05, Student’s t-test) increased	2.89^a	4.00^a	100 (≈ 43.1 µg/mL)	100 (≈ 43.1 µg/mL)	200	b (1X MIC)	100	a (1X MIC)	b (1X MIC)	d (4X MIC)	200 (≈ 86.2 µg/mL)	100 (≈ 43.1 µg/mL)	200 (≈ 86.2 µg/mL)	100 (≈ 43.1 µg/mL)	100 (≈ 43.1 µg/mL)	100 (≈ 43.1 µg/mL)	intracellular APEC clearance concentration as multiple of MIC (superscript) [2]: b (2X MIC); MBEC as multiple of MIC [4]: 4 X MIC; MBC (APEC O8): 200 µM (≈ 86.2 µg/mL); MIC (APEC O8): 200 µM (≈ 86.2 µg/mL); minimal effective concentration [5]: ≥ 100 µM; MBC (APEC O2): 200 µM (≈ 86.2 µg/mL); MIC (APEC O2): 100 µM (≈ 43.1 µg/mL); MBC (APEC O1): 100 µM (≈ 43.1 µg/mL); MIC (APEC O1): 100 µM (≈ 43.1 µg/mL); MBC (APEC O109): 200 µM (≈ 86.2 µg/mL); MIC (APEC O109): 200 µM (≈ 86.2 µg/mL); MBC relative to MIC (APEC O78 [6]): identical to MIC; MIC (APEC O78 [6]): 100 µM (≈ 43.1 µg/mL); MBC (APEC O78 [6]): 100 µM (≈ 43.1 µg/mL); MBC (APEC O78-53): 200 µM (≈ 86.2 µg/mL); MIC (APEC O78-53): 100 µM (≈ 43.1 µg/mL); uptake of crystal violet compared with DMSO (APEC O78 [8]): increased the uptake of crystal violet; cytological profile (FM4-64 / SYTO-9 staining) (APEC O78 [7]): bright red foci at random positions throughout the cell indicating membrane defects (membrane pore formers)
